# Patent publication US20090311237A1, “Combination therapy using a soluble hyaluronidase and a bisphosphonate” (priority 2008, published 2009)
# Like-named read-outs stand apart in the source and are kept apart here.
# What was measured:
# [1] = tested on: Sprague Dawley rats; experiment: Injection site reaction recovery study (10 days) after ID ZA with or without rHuPH20; assay type: in vivo, rat
# Description: Sprague Dawley rats were randomized to three groups of 4 rats each. ZA (0.1 ml at 0.1 mg/mL), either alone or supplemented with either 130 U/mL or 100,000 U/mL rHuPH20, was given via intradermal injection. Injection sites were observed and measured daily. Animals were sacrificed at 10 days post-injection and skin from lesion areas were dissected, fixed in 10% buffered formalin, embedded in paraffin and stained with H&E.
# [2] = IV infusion; cited from earlier work
# [3] = cited from earlier work; for IV MRT: IV […] infusion, calculated from published ZA PK data
# [4] = tested on: Sprague Dawley rats; experiment: Semi-quantitative histopathology of skin at injection site after ID zoledronic acid with or without rHuPH20; assay type: in vivo; parameters: key: —: Dash indicates no incidence of indicated finding; conditions: rat ID, 4 days
# Description: Nine to ten week old female Sprague Dawley rats, having approximate body weight of 200-250 grams, were employed for the study. One day prior to injection, rats were shaved and hair on the back and flank area were removed by Nair® cream (exposure less than 1 min to depilation cream) followed by deep wash with warm tap water. On the day of dosing, all rats were injected intradermally in flank area (one or two injection spots per side), with 0.1 or 0.2 mL as indicated of zoledronic acid solution, with or without rHuPH20, at each corresponding concentration as shown in study design table. Injection site appearance was observed and quantified by blind assessment each day following the injection until the end of the study, at which time animals were sacrificed and the skin around the dosing area as well as a part of the skin that was not effected by the dosing were collected and fixed in 10% neutral buffered formalin (NBF) and further embedded in paraffin, 5 μm sections were cut for H&E stain and histopathology evaluation.
# Lesion area was calculated by the following formula: W×L×¼π. Quantitative results were analyzed using one-way analysis of variance (ANOVA) method, followed by Dunnett's comparison method (Prizm 4 program). […] Histopathologic findings were characterized by semi-quantitative analysis of necrosis and infiltration in the skin tissue. […]
smiles,measurement,setting,value
"O=P(O)(O)C(O)(Cn1ccnc1)P(=O)(O)O [ZA, 1-hydroxy-2-(1H-imidazol-1-yl)ethylidene-1,1-bisphosphonic acid]",time to peak lesion area,"[1]; rat ID 0.1 ml, ZA 0.1 mg/mL alone or with 130 or 100,000 U/mL rHuPH20",3 days
same,histopathologic findings,"[1]; rat ID, ZA 0.1 mg/mL alone, 10 days post-injection","scabbing, epidermal necrosis, infiltration, vessel dilation and hemorrhage"
same,patients with skin irritation at the injection site,[2],1%
same,IV MRT,[3]; adjusted to match SC dose 0.25 mg,1.9010 h
same,IV MRT,[3]; adjusted to match SC dose 0.5 mg,2.2330 h
same,IV MRT,[3]; adjusted to match SC dose 1 mg,5.2494 h
same,IV MRT,[3]; adjusted to match SC dose 5 mg,9.1957 h
same,terminal γ phase half-life (T½γ),"[3]; man, IV",~146 h
same,Necrosis: Superficial dermis,[4]; ZA alone 0.05 mg/mL,—
same,Necrosis: Superficial dermis,[4]; ZA alone 0.1 mg/mL,—
